Holding throughout (format): biochemical
One assay addresses T1, MMP-2 (Homo sapiens, UniProt P08253).
T1 construct: purchased Calbiochem-Novabiochem International, Inc
T1 sequence (P08253 110-660): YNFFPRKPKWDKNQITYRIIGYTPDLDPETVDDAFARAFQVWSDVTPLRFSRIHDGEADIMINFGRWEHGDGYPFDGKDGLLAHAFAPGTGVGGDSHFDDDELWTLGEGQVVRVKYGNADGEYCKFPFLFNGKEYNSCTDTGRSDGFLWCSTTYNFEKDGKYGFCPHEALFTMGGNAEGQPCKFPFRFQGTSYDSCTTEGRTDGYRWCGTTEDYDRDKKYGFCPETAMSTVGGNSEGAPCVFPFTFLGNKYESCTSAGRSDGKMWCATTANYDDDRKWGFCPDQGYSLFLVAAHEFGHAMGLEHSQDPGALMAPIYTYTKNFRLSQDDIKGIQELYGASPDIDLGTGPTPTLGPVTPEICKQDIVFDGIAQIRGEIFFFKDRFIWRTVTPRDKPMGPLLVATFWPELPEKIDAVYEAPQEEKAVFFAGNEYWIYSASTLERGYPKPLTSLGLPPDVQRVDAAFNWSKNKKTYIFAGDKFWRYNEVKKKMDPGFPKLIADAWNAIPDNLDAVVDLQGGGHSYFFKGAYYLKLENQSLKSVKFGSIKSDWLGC
Nature of the assay: Assay for inhibitory activities on MMPs (fluorogenic peptide substrate), MMP-2. The note with it: purchased MMP-2; substrate MOCAc-Pro-Leu-Gly-Leu-A2Pr(DNP)-Ala-Arg-NH2. The protocol:
MMP-2 was purchased from Calbiochem-Novabiochem International, Inc.
(§1) The enzymatic activity on MMPs was analyzed by the method described in “C. Graham Knight, Frances Willenbrock and Gillian Murphy: A novel coumarin-labelled peptide for sensitive continuous assays of the matrix metalloproteinases: FEBS LETT., 296, (1992), 263-266”. The substrate MOCAc-Pro-Leu-Gly-Leu-A2Pr(DNP)-Ala-Arg-NH2 was purchased from Peptide Institute, Inc., Osaka, Japan. The measurement of the inhibitory activities (IC50) was carried out by the following four methods;
(§2) (A) Reaction with substrate, enzyme (MMPs) and inhibitor
(§3) (B) Reaction with substrate and inhibitor, without enzyme
(§4) (C) Reaction with substrate and enzyme (MMPs), without inhibitor
(§5) (D) Reaction with substrate only
(§6) IC50 values were calculated by using the following formula and each fluorescence values of above four methods (A to D). % inhibition={1−(A−B)/(C−D)}×100 IC50 means the concentration required to inhibit 50% of the enzyme activity.

Another assay has as its target T2, MMP-8 (Homo sapiens, UniProt P22894).
T2 construct: catalytic domain (^99Phe˜^262Gly) was amplified with PCR; His-tag; enterokinase digestion-site; made in house; host or cells: Escherichia coli
Nature of the assay: Assay for inhibitory activities on MMPs (fluorogenic peptide substrate), MMP-8. The note with it: catalytic domain 99Phe-262Gly; substrate MOCAc-Pro-Leu-Gly-Leu-A2Pr(DNP)-Ala-Arg-NH2.
Description: In regard to MMP-8, catalytic domain (^99Phe˜^262Gly) was amplified with PCR using commercial available Human Bone Marrow cDNA. This was cloned in Escherichia. coli expression vector pTrc99AHE inserted with His-tag sequence and enterokinase digestion-site, induced and expressed by IPTG (Isopropyl-β-D-thiogalactopyranoside) and expressed in a insoluble fraction (Thau F. Ho, M. Walid Qoronfleh, Robert C. Wahl, Trica A. Pulvino, Karen J. Vavra, Joe Falvo, Tracey M. Banks, Patricia G. Brake and Richard B. Ciccarelli: Gene expression, purification and characterization of recombinant human neutrophil collagenase. Gene 146, (1994) 297-301, Prepared by the a improved method of this material). Isolation of MMP-8 from an insoluble fraction was carried out by dissolving in modifier (6M urea) by a usual method and purification with metal chelate chromatography. And then removing modifier (6M urea) with dialysis and refolding of the enzyme spontaneously gave activated MMP-8.
as §1, §2, §3, §4, §5, §6

For another assay, the target named is T3, MMP-9 (Homo sapiens, UniProt P14780).
T3 construct: endogenous in cells; host or cells: HT1080 human fibrosarcoma cells, TPA-stimulated; enzyme purified from conditioned medium
Nature of the assay: Assay for inhibitory activities on MMPs (fluorogenic peptide substrate), MMP-9. The note with it: MMP-9 from HT1080 cells, activated by TPCK-Trypsin; substrate MOCAc-Pro-Leu-Gly-Leu-A2Pr(DNP)-Ala-Arg-NH2.
Description: MMP-9 was isolated and purified by procedures described in as follows: Yasunori Okada, Yukio Gonoji, Katsumi Naka, Katsuro Tomita, Isao Nakanishi, Kazushi Iwata, Kyoko Yamashita, and Taro Hayakawa: Matrix metalloproteinase 9 (92-kDa gelatinase/type IV collagenase) from HT1080 human fibrosarcoma cells. Purification and activation of the precursor and enzymic properties J. Biol. Chem., 1992, 267 21712-21719, in combination with others: 1)Yasunori Okada, Tatsuhisa Morodomi, Jan J, Enghild, ko Suzuki, Atsushi Yasui, Isao Nakanishi, Guy Salvesen and Hideaki Nagase: Matrix metalloproteinase 2 from human rheumatoid synovial fibroblasts. Purification and activation of the precursor and enzymic properties. Eur. J. Biochem. 1990, 194 721-730; 2)Robin V Ward, Rosalind M Hembry, John J Reynolds and Gillian Murphy: The purification of tissue inhibitor of metalloproteinase-2 from its 72 kDa progelatinase complex. Biochem. J. 1991 278 179-187. In detail, human fibrosarcoma ATCC HT1080 cell line was cultured to confluent in Dulbecco's Modified Medium (DMEM) containing 10% fetal-calf serum at 37° C. for 48 hours. Subsequently, the medium of confluent culture was changed to serum-free DMEM medium. To obtain MMP-9, Phorbol-12-myristate-13-acetate (TPA) must be added to this serum-free DMEM medium at a concentration of 50 ng/ml. The TPA treated medium was centrifuged at 3000 rpm for 15 min and the supernatant was concentrated to 450 ml by a Toyo-Roshi UP-20 apparatus with an ultrafiltration membrane. Then, proMMP-9 in this concentrated solution was purified by using columns of Gelatin-Sepharose and Concanavalin A-Sepharose. The pool containing proMMP-9 was dialyzed, concentrated (Toyo-Roshi UP-20) and applied to columns of Sephacryl S-200 and Green A matrix for the separation from TIMPs. The obtained proMMP-9 fraction was activated by TPCK-Trypsin (Final conc. 3 μg/501 μl React Mix.).
as §1, §2, §3, §4, §5, §6

The target of the next assay is T4, MMP-12 (Homo sapiens, UniProt P39900).
T4 construct: catalytic domain(^100Phe˜^263Gly) was amplified with RT-PCR; His-tag; enterokinase digestion-site; made in house; host or cells: Escherichia coli
Nature of the assay: Assay for inhibitory activities on MMPs (fluorogenic peptide substrate), MMP-12. The note with it: catalytic domain 100Phe-263Gly; substrate MOCAc-Pro-Leu-Gly-Leu-A2Pr(DNP)-Ala-Arg-NH2. The procedure: (§7) In regard to MMP-12, catalytic domain(^100Phe˜^263Gly) was amplified with RT-PCR from Human Placenta Total RNA. This was cloned in Escherichia. coli expression vector pTrc99AHE inserted with His-tag sequence and enterokinase digestion-site, induced and expressed by IPTG (Isopropyl-β-D-thiogalactopyranoside) and expressed in a insoluble fraction. Isolation of MMP-12 from an insoluble fraction was carried out by dissolving in modifier (6M urea) by a usual method and purification with metal chelate chromatography (Ni Chelateing Sepharose). And then removing modifier (6M urea) with dialysis and refolding of the enzyme spontaneously gave activated MMP-12.
as §1, §2, §3, §4, §5, §6

In a further assay the target is T5, MMP-13 (Homo sapiens, UniProt P45452).
T5 construct: catalytic domain (^104Tyr˜^267Gly) was amplified with RT-PCR; His-tag; enterokinase digestion-site; made in house; host or cells: Escherichia coli
As to the kind of experiment: Assay for inhibitory activities on MMPs (fluorogenic peptide substrate), MMP-13. The note with it: catalytic domain 104Tyr-267Gly; substrate MOCAc-Pro-Leu-Gly-Leu-A2Pr(DNP)-Ala-Arg-NH2. The procedure: as §7, with “MMP-13, mRNA was prepared from carcinoma cell SW1353 derived from human cartilage stimulate by IL-1, TNF and” for “MMP-12,”, “domain (^104Tyr˜^267Gly)” for “domain(^100Phe˜^263Gly)”, “RT-PCR.” for “RT-PCR from Human Placenta Total RNA.”, “MMP-13” for “MMP-12”, “dialyze” for “dialysis”, “MMP-13.” for “MMP-12.”
as §1, §2, §3, §4, §5, §6

Broadly, the IC50 is the point on the concentration scale where inhibition reaches its midpoint.

T3 sequence (P14780 107-707 limits assumed): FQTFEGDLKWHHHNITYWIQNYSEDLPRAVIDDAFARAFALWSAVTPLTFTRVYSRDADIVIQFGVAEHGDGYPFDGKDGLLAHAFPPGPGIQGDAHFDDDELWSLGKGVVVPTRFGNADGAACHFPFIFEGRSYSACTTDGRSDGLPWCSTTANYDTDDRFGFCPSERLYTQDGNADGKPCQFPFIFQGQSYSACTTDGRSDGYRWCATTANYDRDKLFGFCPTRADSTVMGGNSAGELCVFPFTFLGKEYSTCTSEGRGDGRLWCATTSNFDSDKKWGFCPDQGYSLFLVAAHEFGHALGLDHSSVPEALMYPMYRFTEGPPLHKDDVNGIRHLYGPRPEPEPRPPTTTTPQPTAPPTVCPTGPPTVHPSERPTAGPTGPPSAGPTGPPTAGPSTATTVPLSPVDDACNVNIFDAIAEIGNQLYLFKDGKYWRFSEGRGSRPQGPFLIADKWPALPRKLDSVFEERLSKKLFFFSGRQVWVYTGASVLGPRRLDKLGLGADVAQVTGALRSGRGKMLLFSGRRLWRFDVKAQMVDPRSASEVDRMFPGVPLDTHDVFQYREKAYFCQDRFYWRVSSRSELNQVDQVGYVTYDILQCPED
T4 sequence (P39900 100-263): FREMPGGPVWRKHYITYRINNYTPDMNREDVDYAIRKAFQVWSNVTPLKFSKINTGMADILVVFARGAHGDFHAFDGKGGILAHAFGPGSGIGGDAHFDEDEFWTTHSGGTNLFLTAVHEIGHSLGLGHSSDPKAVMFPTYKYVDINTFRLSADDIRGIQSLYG
T2 sequence (P22894 99-262): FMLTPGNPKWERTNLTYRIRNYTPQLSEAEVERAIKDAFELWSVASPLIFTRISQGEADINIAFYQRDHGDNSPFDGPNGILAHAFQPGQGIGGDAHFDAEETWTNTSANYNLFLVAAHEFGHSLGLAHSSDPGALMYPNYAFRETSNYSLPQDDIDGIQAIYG

For `C[C@@H](NS(=O)(=O)c1ccc(-c2ncc(-c3ccc(Cl)cc3)s2)cc1)C(=O)O` [Compound B-25], the IC50 worked out at 0.484 nM against MMP-2; 51.7 nM against MMP-8; 5.69 nM on MMP-9; 0.949 nM at MMP-12; 4.82 nM against MMP-13.
The matching figures for `CC(C)[C@@H](NS(=O)(=O)c1ccc(-c2ncc(-c3ccc(F)cc3)o2)cc1)C(=O)O` [Compound A-25]: 12.2 nM, 75.9 nM, 179 nM, 7.48 nM and 140 nM.
As to `CC(C)[C@H](NS(=O)(=O)c1ccc(-c2ncc(-c3ccc(F)cc3)s2)cc1)C(=O)O` [Compound B-9], the half-maximal inhibitory concentration (IC50) against MMP-2 was found to be 8.05 nM; against MMP-8 it was 12.5 nM; on MMP-9, 55 nM; against MMP-12 it was 1.33 nM; against MMP-13, 13.1 nM.
The matching figures for `CC(C)[C@H](NS(=O)(=O)c1ccc(-c2ncc(-c3ccc(Cl)cc3)s2)cc1)C(=O)O` [Compound B-5]: 5.24 nM, 25.7 nM, 14.8 nM, 1.33 nM and 6.18 nM.
For `CC(C)[C@H](NS(=O)(=O)c1ccc(-c2ncc(-c3ccc(Cl)cc3)o2)cc1)C(=O)O` [Compound A-24], the IC50 at MMP-2 worked out at 670 nM; against MMP-8 it was 337 nM; at MMP-9 it was 2370 nM; against MMP-12, 10 nM; against MMP-13, 678 nM.
On to `O=C(O)[C@@H](Cc1c[nH]c2ccccc12)NS(=O)(=O)c1ccc(-c2ncc(-c3ccc(Cl)cc3)s2)cc1` [Compound B-51], for which the IC50 on MMP-2 was 0.276 nM; against MMP-8, 66 nM; at MMP-9, 4.24 nM; at MMP-12, 0.761 nM; at MMP-13, 2.66 nM.
As to `C[C@@H](NS(=O)(=O)c1ccc(-c2ncc(-c3ccc(F)cc3)o2)cc1)C(=O)O` [Compound A-6], the IC50 against MMP-2 is 9.71 nM; at MMP-8, 233 nM; on MMP-9 it was 368 nM; on MMP-12, 12.5 nM; at MMP-13, 234 nM.
As to `CC(C)[C@H](NS(=O)(=O)c1ccc(-c2ncc(-c3ccc(F)cc3)o2)cc1)C(=O)O` [Compound A-26], the IC50 was found to be 514 nM on MMP-2, 569 nM on MMP-8, 1810 nM on MMP-9 and 40.2 nM against MMP-12.
In the case of `C[C@@H](NS(=O)(=O)c1ccc(-c2ncc(-c3ccc4ccccc4c3)s2)cc1)C(=O)O` [Compound B-53], the IC50 was determined as 2.41 nM against MMP-2; 373 nM on MMP-8; 173 nM on MMP-9; 2.54 nM on MMP-12; 12.4 nM against MMP-13.
Take `COc1ccc(-c2cnc(-c3ccc(S(=O)(=O)N[C@@H](C)C(=O)O)cc3)s2)cc1` [Compound B-24]: the half-maximal inhibitory concentration (IC50) was 6.3 nM against MMP-2; 18.5 nM at MMP-8; 109 nM on MMP-9; 1.5 nM at MMP-12; 8.4 nM against MMP-13.
Take `O=C(O)[C@@H](Cc1ccccc1)NS(=O)(=O)c1ccc(-c2ncc(-c3ccc(Cl)cc3)s2)cc1` [Compound B-13]: the IC50 on MMP-2 is 1.2 nM; on MMP-8 it was 92.3 nM; on MMP-9, 11.8 nM; on MMP-12, 1.41 nM; against MMP-13, 5.08 nM.
Take `COc1ccc(-c2cnc(-c3ccc(S(=O)(=O)N[C@H](Cc4ccccc4)C(=O)O)cc3)o2)cc1` [Compound A-14]: the concentration for half-maximal inhibition (IC50) was found to be 2.66 nM against MMP-2; 7.07 nM at MMP-8; 174 nM on MMP-9; 1.88 nM on MMP-12; 5.51 nM at MMP-13.
As for `O=C(O)[C@H](Cc1ccccc1)NS(=O)(=O)c1ccc(-c2ncc(-c3ccc(Cl)cc3)o2)cc1` [Compound A-16], the IC50 at MMP-2 is 265 nM; on MMP-9, 758 nM; against MMP-12, 26.2 nM; on MMP-13, 774 nM.
With `CSCC[C@@H](NS(=O)(=O)c1ccc(-c2ncc(-c3ccc(Cl)cc3)s2)cc1)C(=O)O` [Compound B-46], the concentration for half-maximal inhibition (IC50) on MMP-2 was 1.17 nM; on MMP-8, 57 nM; at MMP-9, 24 nM; at MMP-12, 1.08 nM; against MMP-13 it was 11 nM.
With `COc1ccc(-c2cnc(-c3ccc(S(=O)(=O)N[C@@H](C(=O)O)C(C)C)cc3)s2)cc1` [Compound B-6], the half-inhibitory concentration (IC50) against MMP-2 worked out at 0.347 nM; against MMP-8, 6.47 nM; on MMP-9 it was 10 nM; against MMP-12 it was 0.37 nM; against MMP-13, 1.16 nM.
The molecule `C[C@H](NS(=O)(=O)c1ccc(-c2ncc(-c3ccc(Cl)cc3)o2)cc1)C(=O)O` [Compound A-5] registered a 50% inhibitory concentration (IC50) against MMP-12 of 28.4 nM.

Source of the values: US6949566B2, “Thiazole and oxazole derivatives” (Shionogi & Co. Ltd., priority 2000, dated 2005).
